Assay results taken from patent publication US20110172297A1, “Oxopiperdinyl And Pyranyl Sulfonamides and Pharmaceutical Compositions Thereof” (Pfizer Inc, priority 2008, published 2011).
pEC50: −log10 of the molar value.

System: AMPA receptors
Experiment: AMPA ES cell FLIPR screen (AMPA Potentiator Assay)
Type: cell-based
Settings: murine ES cell-derived neurons, FLIPR Fluo-4 calcium signal, 32 uM AMPA challenge; values marked * are the geometric mean of 2-9 EC50 determinations
Method: The murine ES cell line used was E14-Sx1-16C, which has a targeted mutation in the Sox1 gene, a neuroectodermal marker, that offers G418 resistance when the Sox1 gene is expressed (Stem Cell Sciences). ES cells were maintained undifferentiated as previously described (Roach). […] ES cells were plated on gelatin-coated dishes (BD Biosciences), the media was changed daily and the cells were dissociated with 0.05% Trypsin EDTA (Invitrogen) every other day.
Embryoid Body Formation: Prior to embryoid body (EB) formation the ES cells were weaned from FBS onto Knockout Serum Replacement (KSR) (Invitrogen). To form EBs, ES cells were dissociated into a single cell suspension, then 3×10^6 cells were plated in bacteriology dishes (Nunc 4014) and grown as a suspension culture in NeuroEB-I medium that consisted of Knockout™ D-MEM (Invitrogen), supplemented with 10% KSR (Invitrogen), 0.2 mM L-Glutamine (Invitrogen), 0.1 mM MEM non-essential amino acids (Invitrogen), 30 μg/ml Gentamicin (Invitrogen), 1000 u/ml ESGRO (Chemicon), 0.1 mM 2-Mercaptoethanl (Sigma) and 150 ng/ml Transferrin (Invitrogen). The plates were put on a Stovall Belly Button shaker in an atmospheric oxygen incubator. The media was changed on day 2 of EB formation with NeuroEB-I and on day 4 with NeuroEB-II (NeuroEB-I plus 1 μg/ml mNoggin [R&D Systems]).
Neuronal Precursor Selection and Expansion: On day 5 of EB formation, EBs were dissociated with 0.05% Trypsin EDTA, and 4×10^6cells/100 mm dish were plated on Laminin coated tissue culture dishes in Neuroll-G418 medium that consisted of a base medium of a 1:1 mixture of D-MEM/F12 supplemented with N2 supplements and NeuroBasal Medium supplemented with B27 supplement and 0.1 mM L-Glutamine (all from Invitrogen). The base medium was then supplemented with 10 ng/ml bFGF (Invitrogen), 1 μg/ml mNoggin, 500 ng/ml SHH—N, 100 ng/ml FGF-8b (R&D Systems), 1 μg/ml Laminin and 200 μg/ml G418 (Invitrogen) for selection of neuronal precursors expressing Sox-1. The plates were put in an incubator that contained 2% Oxygen and were maintained in these conditions. During the 6-day selection period, the Neuroll media was changed daily. On day 6, the surviving neuronal precursor foci were dissociated with 0.05% Trypsin EDTA and the cells were plated at a density of 1.5×10^6 cells/100 mm Laminin coated dish in Neuroll-G418 medium. The cells were dissociated every other day for expansion, and prepared for Cryopreservation at passage 3 or 4. The crypreservation medium contained 50% KSR, 10% Dimethyl Sulfoxide (DMSO) (Sigma) and 40% Neurol-G418I medium. Neuronal precursors were crypreserved at a concentration of 4×10^6 cells/ml and 1 ml/cryovial in a controlled rate freezer overnight then transferred to an ultra-low freezer or liquid nitrogen for long-term storage.
Neuronal Differentiation: Cryopreserved ES cell-derived neuronal precursors were thawed by the rapid thaw method in a 37-degree water-bath. The cells were transferred from the cryovial to a 100 mm Laminin coated tissue culture dish that already contained Neuroll-G418 that had been equilibrated in a 2% Oxygen incubator. The media was changed with fresh Neuroll-G418 the next day. The cells were dissociated every other day as described above for expansion to generate enough cells to plate for the screen. For the screen, the cells were plated into 384-well poly-d-lysine coated tissue culture dishes (BD Biosciences) by the automated SelecT at a cell density of 6K cells/well in differentiation medium Neurolll that contained a 4:1 ratio of the NeuroBasalMedium/B27:D-MEM/F12/N2 supplemented with 1 μM cAMP (Sigma), 200 μM Ascorbic Acid (Sigma), 1 μg/ml Laminin (Invitrogen) and 10 ng/ml BDNF (R&D Systems). The plates were put in an incubator with 2% Oxygen and allowed to complete the differentiation process for 7 days. The cells could then be used over a 5-day period for the high throughput screen.
On the day of the assay, the FLIPR assay may be performed using the following methods: […]

CC(C)S(=O)(=O)N[C@@H]1CCOC[C@H]1c1ccc(-c2ccccc2C#N)cc1 [Example 32, N-[(3S,4R)-3-(2′-cyanobiphenyl-4-yl)tetrahydro-2H-pyran-4-yl]propane-2-sulfonamide] and CC(C)S(=O)(=O)N[C@@H]1COCC[C@@H]1c1ccc(-c2ccccc2C#N)cc1 [Example 56, N-[(3S,4R)-4-(2′-cyanobiphenyl-4-yl)tetrahydro-2H-pyran-3-yl]propane-2-sulfonamide] cannot be ordered by pEC50: < 4.58 for the first, < 4.50 for the second.

CC(C)S(=O)(=O)N[C@@H]1CCOC[C@H]1c1ccc(-c2ccccc2)cc1 [Example 33, N-[(3S,4R)-3-biphenyl-4-yltetrahydro-2H-pyran-4-yl]propane-2-sulfonamide] and CC(C)S(=O)(=O)N[C@H]1COCC[C@H]1c1ccc(-c2ccccc2)cc1 [Example 55, N-[(3R,4S)-4-biphenyl-4-yltetrahydro-2H-pyran-3-yl]propane-2-sulfonamide] cannot be ordered by pEC50: < 4.50 for the first, < 4.50 for the second.

Compared with CCOc1ccccc1-c1ccc([C@H]2COCC[C@@H]2NS(=O)(=O)C(C)C)cc1 [Example 34, N-[(3R,4S)-3-(2′-ethoxybiphenyl-4-yl)tetrahydro-2H-pyran-4-yl]propane-2-sulfonamide], CCOc1ccccc1-c1ccc([C@@H]2COCC[C@H]2NS(=O)(=O)C(C)C)cc1 [Example 35, N-[(3S,4R)-3-(2′-ethoxybiphenyl-4-yl)tetrahydro-2H-pyran-4-yl]propane-2-sulfonamide] is 1.32 log units lower in pEC50: 6.66 for the first, 5.34 for the second. The first is the more potent here.

CC(C)S(=O)(=O)N[C@H]1CCOC[C@@H]1c1ccc(-c2cccnc2)cc1 [Example 36, N-[(3R,4S)-3-(4-pyridin-3-ylphenyl)tetrahydro-2H-pyran-4-yl]propane-2-sulfonamide] and CC(C)S(=O)(=O)N[C@@H]1CCOC[C@H]1c1ccc(-c2cccnc2)cc1 [Example 37, N-[(3S,4R)-3-(4-pyridin-3-ylphenyl)tetrahydro-2H-pyran-4-yl]propane-2-sulfonamide] cannot be ordered by pEC50: < 4.50 for the first, < 5.33 for the second.

First: CC(C)S(=O)(=O)N[C@H]1CCOC[C@@H]1c1ccc(-c2ccc(C#N)cc2)cc1 [Example 38, N-[(3R,4S)-3-(4′-cyanobiphenyl-4-yl)tetrahydro-2H-pyran-4-yl]propane-2-sulfonamide]
Second: CC(C)S(=O)(=O)N[C@@H]1CCOC[C@H]1c1ccc(-c2ccc(C#N)cc2)cc1 [Example 39, N-[(3S,4R)-3-(4′-cyanobiphenyl-4-yl)tetrahydro-2H-pyran-4-yl]propane-2-sulfonamide]
The pEC50 of the first is higher: 5.98 for the first, < 4.50 for the second.

First: CC(C)S(=O)(=O)N[C@H]1CCOC[C@@H]1c1ccc(-c2ccc(F)cc2C#N)cc1 [Example 40, N-[(3R,4S)-3-(2′-cyano-4′-fluorobiphenyl-4-yl)tetrahydro-2H-pyran-4-yl]propane-2-sulfonamide]
Second: CC(C)S(=O)(=O)N[C@H]1COCC[C@H]1c1ccc(-c2ccccc2C#N)cc1 [Example 57, N-[(3R,4S)-4-(2′-cyanobiphenyl-4-yl)tetrahydro-2H-pyran-3-yl]propane-2-sulfonamide]
The pEC50 of the first is 0.46 log units higher: 6.59 for the first, 6.13 for the second. The first is the more potent here.

Going from CC(C)S(=O)(=O)N[C@H]1CCOC[C@@H]1c1ccc(-c2ccc(C#N)s2)cc1 [Example 41, N-{(3R,4S)-3-[4-(5-cyano-2-thienyl)phenyl]tetrahydro-2H-pyran-4-yl}propane-2-sulfonamide] to CC(C)S(=O)(=O)N[C@@H]1CCOC[C@H]1c1ccc(-c2ccc(C#N)s2)cc1 [Example 42, N-{(3S,4R)-3-[4-(5-cyano-2-thienyl)phenyl]tetrahydro-2H-pyran-4-yl}propane-2-sulfonamide], the pEC50 falls from 6.08 to < 4.50.

Going from CC(C)S(=O)(=O)N[C@@H]1CCCO[C@H]1c1ccc(-c2ccccc2)cc1 [Example 43, N-[(2S,3R)-2-biphenyl-4-yltetrahydro-2H-pyran-3-yl]propane-2-sulfonamide] to CC(C)S(=O)(=O)N[C@H]1CCCO[C@@H]1c1ccc(-c2ccccc2C#N)cc1 [Example 46, N-[(2R,3S)-2-(2′-cyanobiphenyl-4-yl)tetrahydro-2H-pyran-3-yl]propane-2-sulfonamide], the pEC50 rises from < 4.50 to 5.91. The second is the more potent here.

First: CCOc1ccccc1-c1ccc([C@H]2OCCC[C@@H]2NS(=O)(=O)C(C)C)cc1 [Example 44, N-[(2R,3S)-2-(2′-ethoxybiphenyl-4-yl)tetrahydro-2H-pyran-3-yl]propane-2-sulfonamide]
Second: CCOc1ccccc1-c1ccc([C@@H]2OCCC[C@H]2NS(=O)(=O)C(C)C)cc1 [Example 45, N-[(2S,3R)-2-(2′-ethoxybiphenyl-4-yl)tetrahydro-2H-pyran-3-yl]propane-2-sulfonamide]
The pEC50 of the first is higher: 6.31 for the first, < 5.02 for the second.

First: CC(C)S(=O)(=O)N[C@@H]1CCCO[C@H]1c1ccc(-c2ccccc2C#N)cc1 [Example 47, N-[(2S,3R)-2-(2′-cyanobiphenyl-4-yl)tetrahydro-2H-pyran-3-yl]propane-2-sulfonamide]
Second: CC(C)S(=O)(=O)N[C@H]1CCCO[C@@H]1c1ccc(-c2ccc(C#N)s2)cc1 [Example 48, N-{(2R,3S)-2-[4-(5-cyano-2-thienyl)phenyl]tetrahydro-2H-pyran-3-yl}propane-2-sulfonamide]
The pEC50 of the first is 0.56 log units lower: 4.69 for the first, 5.25 for the second. The second is the more potent here.

CC(C)S(=O)(=O)N[C@@H]1CCCO[C@H]1c1ccc(-c2ccc(C#N)s2)cc1 [Example 49, N-{(2S,3R)-2-[4-(5-cyano-2-thienyl)phenyl]tetrahydro-2H-pyran-3-yl}propane-2-sulfonamide] and CC(C)S(=O)(=O)N[C@@H]1COCC[C@@H]1c1ccc(-c2ccc(C#N)s2)cc1 [Example 58, N-{(3S,4R)-4-[4-(5-cyano-2-thienyl)phenyl]tetrahydro-2H-pyran-3-yl}propane-2-sulfonamide] cannot be ordered by pEC50: < 4.50 for the first, < 4.50 for the second.

Going from CCOc1ccccc1-c1ccc([C@H]2NC(=O)CC[C@@H]2NS(=O)(=O)C(C)C)cc1 [Example 50, N-[(2R,3S)-2-(2′-ethoxybiphenyl-4-yl)-6-oxopiperidin-3-yl]propane-2-sulfonamide] to CC(C)S(=O)(=O)N[C@@H]1CCC(=O)N[C@H]1c1ccc(-c2ccccc2C#N)cc1 [Example 52, N-[(2S,3R)-2-(2′-cyanobiphenyl-4-yl)-6-oxopiperidin-3-yl]propane-2-sulfonamide], the pEC50 falls from 5.77 to < 4.50.

CC(C)S(=O)(=O)N[C@@H]1CCC(=O)N[C@H]1c1ccc(-c2ccc(C#N)s2)cc1 [Example 51, N-{(2S,3R)-2-[4-(5-cyano-2-thienyl)phenyl]-6-oxopiperidin-3-yl}propane-2-sulfonamide] and CC(C)S(=O)(=O)N[C@H]1CCC(=O)N[C@@H]1c1ccc(-c2ccc(C#N)s2)cc1 [Example 53, N-{(2R,3S)-2-[4-(5-cyano-2-thienyl)phenyl]-6-oxopiperidin-3-yl}propane-2-sulfonamide] are within 0.2 log units of each other in pEC50: 5.77 for the first, 5.63 for the second.

First: CC(C)S(=O)(=O)N[C@H]1CCC(=O)N[C@@H]1c1ccc(-c2ccccc2C#N)cc1 [Example 54, N-[(2R,3S)-2-(2′-cyanobiphenyl-4-yl)-6-oxopiperidin-3-yl]propane-2-sulfonamide]
Second: CC(C)S(=O)(=O)N[C@@H]1COCC[C@@H]1c1ccc(-c2ccc(C#N)cc2)cc1 [Example 60, N-[(3S,4R)-4-(4′-cyanobiphenyl-4-yl)tetrahydro-2H-pyran-3-yl]propane-2-sulfonamide]
The pEC50 of the first is higher: 5.64 for the first, < 4.50 for the second. The first is the more potent here.

In the case of CC(C)S(=O)(=O)N[C@H]1COCC[C@H]1c1ccc(-c2ccc(C#N)s2)cc1 [Example 59, N-{(3R,4S)-4-[4-(5-cyano-2-thienyl)phenyl]tetrahydro-2H-pyran-3-yl}propane-2-sulfonamide], the pEC50 was 5.68.
